From patent US9040566B2, “Adenosine A1 agonists for the treatment of glaucoma and ocular hypertension” (Bayer Intellectual Property GmbH, priority 2010, dated 2015)

Columns and labels:
[1] = tested on: rabbits; details: literature (Crosson); cited from earlier work
[2] = tested on: cynomolgus monkeys; details: literature (Kaufman et al.); cited from earlier work
[3] = tested on: Normotensive wistar rats; assay: Blood pressure measurement in telemetric rats (conscious, topical administration to the eye); format: in vivo; details: conscious rat, 10 mg/ml
Excerpt: B-2. Blood Pressure Measurement in Telemetric Rats
Normotensive wistar rats with a body weight of 300 to 350 g were used for this experimental study. Blood pressure was monitored in freely moving conscious animals by radiotelemetry. Briefly, the telemetric system (DSI Data Science International, MN, USA) is composed on 3 basic elements: implantable transmitters (TA11PA-C40), receivers (RA1010) and a computer-based acquisition software (Dataquest A.R.T 2.1 for Windows). Rats were instrumented with pressure implants for chronic use at least 14 days prior the experiments. Rats were anesthetized with isoflurane (2-3% in O2:N2O=1:2). During catheter implantation under anesthesia, rats were kept on a heating mat. A fluid-filled sensor catheter was inserted upstream into the exposed descending aorta between the iliac bifurcation and the renal arteries. According to the DSI guidelines the tip of the telemetric catheter was located just caudal to the renal arteries and secured by tissue adhesive. The transmitter body was affixed to the inner peritoneal wall before closure of abdomen. In a hardware configuration equipped for 24 animals, each rat cage was positioned on top of an individual receiver platform. After activation of the implanted transmitters, A.R.T., an on-line data acqusition system, samples data and converts telemetric pressure signals into mm Hg. The compounds were dissolved/suspended in an aqueous solution of sodium chloride (0.9%) and administered topically to the eye in 10 μl volume at a concentration of 10 mg/ml. Given are % deviations from the control run-in period of 2 hours before substance administration.

[4] = tested on: Wistar rats; assay: IOP measurements in rats (anesthetized, topical administration to the eye); format: in vivo; details: rat, 10 mg/ml, 10 μl
Protocol: B-1. IOP Measurements in Rats
Wistar rats with a body weight of about 300 g were anesthetized with isoflurane (2-3% in O2:N2O=1:2). The compounds were dissolved/suspended in an aqueous solution of sodium chloride (0.9%) and administered topically to the eye in 10 μl volume at a concentration of 10 mg/ml. IOP was measured with a rebound tonometer (TonoLab) at different time points after application of the compounds. Ocular pressure and effects of hemodynamic parameters can be monitored in this model. N^6-Cyclopentyl-Adenosine (CPA) is a known adenosine A1 agonist having the structure shown below: […]

[5] = tested on: New Zealand rabbits; assay: Assessment of blood pressure in telemetric rabbits; format: in vivo; details: conscious rabbit, topical, 30 μl
Protocol: B-6. Assessment of Blood Pressure and Heart Rate in Telemetric Rabbits Implantation of Telemetric Senders in Female New Zealand Rabbits:
New Zealand rabbits were used for implantation of the telemetric senders. Rabbits were pre-anaesthetized with Rompun® and Ketavet® i.m. at a dose of 5 mg/kg (in 0.25 ml/kg)+40 mg/kg (in 0.40 ml/kg) respectively. Anaesthesia was maintained with an i.v. infusion of Rompun® and Ketavet® (5-15 ml/h) with a solution of Rompun 2 ml (20 mg/1 ml)+Ketavet 4 ml (100 mg/ml) and 60 ml 0.9% aqueous solution of sodium chloride. Before surgery the hairs at the inner side of the back leg were completely removed and the skin were treated with local anaesthetic Xylocaln® Spray and disinfected with Braunol®. The rabbits were transferred to a sterile surgery unit and covered with sterile swabs and compressions. The skin was opened and the arteria femoralis was carefully dissected free and the pressure catheter of the telemetric implant C50 PXT® (DSI/Data Science International, St. Paul, Minn., U.S.A.) was inserted in the […] and forwarded abdominally under control of the pressure signal. The signal was detected with the RMC1-DSI® receiver plates and visualized with the PONEMAH® physiology platform software DSI/Data Science International, St. Paul, Minn., U.S.A.). After detection of a stable blood pressure signal the catheter was fixed with tissue-glue “Gewebepad” (DSI) and the two ECG electrodes were cut close to the transmitter. The transmitter was fixed under the skin of the rabbit. The wound was closed and finally treated with Nebacetin® Powder Spray. Post-operative analgesia was done with Metamizol i.m. 50 mg/kg in 0.1 ml/kg for 5 days after surgery. In addition a 5 day antibiotic therapy with Terramycin®/LA 20 mg/kg with 0.1 ml/kg was applied i.m. All rabbits recovered fully within one week of the surgery and were after 2 weeks adjustment to the measurement procedure used for the blood pressure detection.
Registration of MAP and HR in Conscious Female New Zealand Rabbits:
The rabbits with telemetric implants were housed for 5 hours in a transportation box which was placed on the RMC1-DSI® receiver plates. The signals were visualized, compiled and analyzed with the PONEMAH® physiology platform software. The systolic (SAP), diastolic (DAP) and mean arterial blood pressure (MAP) levels were registered in mmHg and the heart rate (HR) in beat/minutes was calculated from the interval between the systoles. Baseline levels for SAP, DAP and MAP as for HR were registered over a 2 hour equilibration period. The compounds were dissolved/suspended in a solution of 10% transcutol, 10% solutol and 80% PBS, and given by topical administration at the eye in 30 μl volume. Controls received the corresponding solvents. Baseline levels for SAP, DAP and MAP as for HR were registered over a 3 hour period after application.

[6] = tested on: Female New Zealand rabbits; assay: IOP measurements in conscious rabbits; format: in vivo; details: conscious rabbit, topical, 30 μl
Protocol: B-5. IOP Measurements in Conscious Rabbits
Female New Zealand rabbits with a body weight of about 4-5 kg were used to measure inner eye pressure (IOP). The compounds were dissolved/suspended in a solution of 10% transcutol, 10% solutol and 80% PBS, and given by topical administration at the eye in 30 μl volume. IOP was measured with a rebound tonometer (TonoVet) at different time points after application of the drugs. INO-8875 is a known adenosine A1 agonist having the structure shown below: […]

SMILES: OC[C@H]1O[C@@H](n2cnc3c(NC4CCCCC4)ncnc32)[C@H](O)[C@@H]1O [CHA, N6-cyclohexyl-adenosine]
- effect on intraocular pressure [1]: lower intraocular pressure
- effect on intraocular pressure [2]: lower intraocular pressure

SMILES: OC[C@H]1O[C@@H](n2cnc3c(NC4CCCC4)ncnc32)[C@H](O)[C@@H]1O [CPA, N^6-Cyclopentyl-Adenosine]
- mean arterial pressure (MAP) as percent change of zero value ([3]; time 0.25 h): −25.4%
- mean arterial pressure (MAP) as percent change of zero value ([3]; time 0.75 h): −71.3%
- mean arterial pressure (MAP) as percent change of zero value ([3]; time 1.25 h): −58.9%
- mean arterial pressure (MAP) as percent change of zero value ([3]; time 1.75 h): −42.6%
- mean arterial pressure (MAP) as percent change of zero value ([3]; time 2.25 h): −30.3%
- mean arterial pressure (MAP) as percent change of zero value ([3]; time 2.75 h): −17.6%
- mean arterial pressure (MAP) as percent change of zero value ([3]; time 3.25 h): −16.4%
- mean arterial pressure (MAP) as percent change of zero value ([3]; time 3.75 h): −9.0%
- mean arterial pressure (MAP) as percent change of zero value ([3]; time 4.25 h): −8.4%
- mean arterial pressure (MAP) as percent change of zero value ([3]; time 4.75 h): −5.3%
- mean arterial pressure (MAP) as percent change of zero value ([3]; time 5.25 h): −0.7%
- mean arterial pressure (MAP) as percent change of zero value ([3]; time 5.75 h): −2.9%
- mean arterial pressure (MAP) as percent change of zero value ([3]; time 6.25 h): −2.7%
- mean arterial pressure (MAP) as percent change of zero value ([3]; time −0.25 h): 0.0%
- IOP as percent of zero value ([4]; time 0 min): 100.0%
- IOP as percent of zero value ([4]; time 15 min): 65.0%
- IOP as percent of zero value ([4]; time 30 min): 58.5%
- IOP as percent of zero value ([4]; time 45 min): 46.3%
- IOP as percent of zero value ([4]; time 60 min): 42.5%
- IOP as percent of zero value ([4]; time 90 min): 44.8%
- IOP as percent of zero value ([4]; time 120 min): 59.0%

SMILES: O=[N+]([O-])OC[C@H]1O[C@@H](n2cnc3c(NC4CCCC4)ncnc32)[C@H](O)[C@@H]1O [INO-8875]
- mean arterial pressure (MAP) ([5]; 1.0 mg/mL, time 0 min): 123.9 mm Hg
- mean arterial pressure (MAP) ([5]; 1.0 mg/mL, time 30 min): 111.3 mm Hg
- mean arterial pressure (MAP) ([5]; 1.0 mg/mL, time 60 min): 110.9 mm Hg
- mean arterial pressure (MAP) ([5]; 1.0 mg/mL, time 90 min): 112.6 mm Hg
- mean arterial pressure (MAP) ([5]; 1.0 mg/mL, time 120 min): 106.0 mm Hg
- mean arterial pressure (MAP) ([5]; 3.0 mg/mL, time 0 min): 118.5 mm Hg
- mean arterial pressure (MAP) ([5]; 3.0 mg/mL, time 30 min): 101.8 mm Hg
- mean arterial pressure (MAP) ([5]; 3.0 mg/mL, time 60 min): 104.9 mm Hg
- mean arterial pressure (MAP) ([5]; 3.0 mg/mL, time 90 min): 105.7 mm Hg
- mean arterial pressure (MAP) ([5]; 3.0 mg/mL, time 120 min): 109.0 mm Hg
- mean arterial pressure (MAP) ([5]; 10.0 mg/mL, time 0 min): 114.5 mm Hg
- mean arterial pressure (MAP) ([5]; 10.0 mg/mL, time 30 min): 89.5 mm Hg
- mean arterial pressure (MAP) ([5]; 10.0 mg/mL, time 60 min): 86.9 mm Hg
- mean arterial pressure (MAP) ([5]; 10.0 mg/mL, time 90 min): 90.3 mm Hg
- mean arterial pressure (MAP) ([5]; 10.0 mg/mL, time 120 min): 90.0 mm Hg
- IOP as percent of zero value ([6]; 1.0 mg/mL, time 0 min): 100.0%
- IOP as percent of zero value ([6]; 1.0 mg/mL, time 30 min): 85.3%
- IOP as percent of zero value ([6]; 1.0 mg/mL, time 60 min): 86.7%
- IOP as percent of zero value ([6]; 1.0 mg/mL, time 90 min): 93.3%
- IOP as percent of zero value ([6]; 1.0 mg/mL, time 120 min): 100%
- IOP as percent of zero value ([6]; 3.0 mg/mL, time 0 min): 100.0%
- IOP as percent of zero value ([6]; 3.0 mg/mL, time 30 min): 89.3%
- IOP as percent of zero value ([6]; 3.0 mg/mL, time 60 min): 81.3%
- IOP as percent of zero value ([6]; 3.0 mg/mL, time 90 min): 79.0%
- IOP as percent of zero value ([6]; 3.0 mg/mL, time 120 min): 87.3%
- IOP as percent of zero value ([6]; 10.0 mg/mL, time 0 min): 100.0%
- IOP as percent of zero value ([6]; 10.0 mg/mL, time 30 min): 74.0%
- IOP as percent of zero value ([6]; 10.0 mg/mL, time 60 min): 60.0%
- IOP as percent of zero value ([6]; 10.0 mg/mL, time 90 min): 61.3%
- IOP as percent of zero value ([6]; 10.0 mg/mL, time 120 min): 65.0%

SMILES: C[C@H](Cc1ccccc1)Nc1ncnc2c1ncn2[C@@H]1O[C@H](CO)[C@@H](O)[C@H]1O [R-PIA, R(−)-N6-(2-phenylisopropyl)adenosine]
- effect on intraocular pressure [1]: lower intraocular pressure
- effect on intraocular pressure [2]: lower intraocular pressure
